The text below walks through data of paper PMC8426295, “Cytotoxic and radiosensitising effects of a novel thioredoxin reductase inhibitor in breast cancer” (Investigational New Drugs, 2021).

What all share (type): cell-based
Assay [1] deals with T1, TrxR (Homo sapiens, UniProt Q16881).
T1 sequence (Q16881 1-649): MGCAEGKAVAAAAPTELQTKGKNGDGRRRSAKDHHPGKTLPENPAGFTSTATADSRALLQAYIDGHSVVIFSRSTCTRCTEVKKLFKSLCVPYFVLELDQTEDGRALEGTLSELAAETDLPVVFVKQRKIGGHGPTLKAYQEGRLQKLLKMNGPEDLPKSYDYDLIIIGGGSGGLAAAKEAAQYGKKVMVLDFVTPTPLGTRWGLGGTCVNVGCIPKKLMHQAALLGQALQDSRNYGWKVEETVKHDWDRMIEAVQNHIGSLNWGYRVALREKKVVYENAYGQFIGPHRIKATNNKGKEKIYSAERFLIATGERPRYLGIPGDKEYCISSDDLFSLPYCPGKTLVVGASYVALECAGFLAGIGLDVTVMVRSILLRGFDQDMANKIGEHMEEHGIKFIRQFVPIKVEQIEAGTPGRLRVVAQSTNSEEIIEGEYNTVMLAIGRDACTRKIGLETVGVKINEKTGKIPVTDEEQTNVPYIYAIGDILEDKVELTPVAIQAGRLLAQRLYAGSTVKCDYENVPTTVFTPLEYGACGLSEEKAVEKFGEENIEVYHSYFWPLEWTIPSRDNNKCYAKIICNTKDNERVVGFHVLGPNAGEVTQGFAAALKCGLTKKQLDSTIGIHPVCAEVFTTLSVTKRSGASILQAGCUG
Briefly: Thioredoxin reductase activity assay (insulin reduction) on lysates of drug-treated breast cancer cells. The method, then:
TrxR enzyme activity was assessed using an insulin reduction assay. Briefly, 2 × 10^6 cells were seeded, in triplicate, in 75c m^2 tissue culture flasks. After 24 h, sub-confluent cells were treated with either IQ9 (0–1000 nM) or 1000 nM auranofin (as a positive control) for 4 or 48 h, then trypsinised, washed, and resuspended in M-PER™ Mammalian Protein Extraction Reagent (ThermoFisher, USA) supplemented with 1X Halt protease inhibitor and EDTA. Protein concentration was determined using the Bradford assay. 80 μg of protein lysates isolated from each treatment conditions and reaction mix (HE buffer (100 mM HEPES pH 7.2, 5 mM EDTA), 20 μM Trx, 1.7 mM insulin, 10 mM β-NADPH) were added to the 96-well plate and incubated for 1 h at 37 °C. The reaction was stopped by adding stop buffer containing 6 M guanidine hydrochloride, 50 mM Tris, and 10 mM DTNB (Sigma, UK), with a final pH of 8.0. The plate was read at room temperature using a BMG Fluostar Optima Microplate Reader at 412 nm wavelength. The TrxR activity was expressed as the percentage of control, no drug-treated.

The test system of assay [2] is MCF-7 cells. Briefly: Clonogenic survival assay. The conditions noted are these: Homo sapiens. Here is the method:
(§1) 5 × 10^5 cells were seeded in T25 cm^2 tissue culture flasks and incubated overnight. The sub-confluent cells were then treated either for 4-h or 48-h with IQ9 (0–5000 nM) or doxorubicin (10–20 nM). Following drug treatment, cells were collected, counted, and plated at low-density, in triplicate, and incubated, at 37 °C, 5% CO2, undisturbed, for 2 weeks for TNBC cells and 3 weeks for luminal cells, for colony formation. Colonies were fixed (50% methanol in 0.9% saline solution) and stained (0.5% crystal violet solution). Colonies consisting of more than 50 cells were confirmed by microscopy and scored as survivors. The plating efficiency (PE) was calculated as numbers of colonies formed/ numbers of cells plated. For single-agent treatment, drug or radiation, the surviving fraction was calculated as: number of colonies formed/ (numbers of cell plated x PE). For drug radiation combination experiments, cytotoxicity of drug treatment was accounted for by calculating surviving fraction as: number of colonies formed from each radiation dose/ (number of cells plated × PE × surviving fraction of drug-treated cell at 0 Gy).
(§2) IC50 values were calculated from dose-response curves using an SPSS regression model between inhibition ratios and concentration gradients. The radiobiological parameters: alpha (α), beta (β), α/β ratio, and surviving fraction at 2 Gy (SF2) were extracted from the survival curves fitted using the LQ model. All results are presented as average ± standard deviation (SD) of three independent experiments, each performed in triplicate. Data were analysed using the student T-test and ANOVA one-way test. Statistical analysis was performed using SPSS 23.0 software. Values of P < 0.05 were considered statistically significant.

Assay [3] has as its system MDA-MB-231 cells. Briefly: Clonogenic survival assay. The settings on record: Homo sapiens. Here is the method:
as §1, §2

Assay [4] relates to MDA-MB-436 cells. Briefly: Clonogenic survival assay. The settings on record: Homo sapiens. Here is the method: as §1, §2
For assay [5], the system named is MDA-MB-468 cells. Briefly: Clonogenic survival assay. The conditions noted are these: Homo sapiens. Here is the method: as §1, §2
In assay [6] the test system is T47D cells. Briefly: Clonogenic survival assay. The conditions noted are these: Homo sapiens. The method, then:
as §1, §2

A word on the inhibition: it is how much of the control response was suppressed. High values mean a strong effect, low ones a weak effect. Usually IC50 stands for the concentration that gives 50% inhibition. Consider `COC1=CC(=O)c2c(c(COc3c(F)cc(F)cc3F)cn2C)C1=O` [IQ9], for which the “inhibition of TrxR activity” value in assay [1] (1000 nM, 4 h, all TNBC cell lines) was “complete inhibition”. Moreover, the inhibition at 1 µM in assay [1] (1000 nM, 4 h, luminal cell lines) is around 70%. Besides, in assay [1] (48 h exposure, T47D), the “inhibition in TrxR activity” value is “no significant inhibition”. The IC50 in assay [2] (MCF7, 4 h) stood at 340.5 ± 2.1 nM; in assay [2] (MCF7, 48 h) it was 601 ± 114 nM; in assay [3] (MDA-MB-231, 4 h), 565 ± 29.5 nM; in assay [3] (MDA-MB-231, 48 h), 324 ± 20.1 nM; in assay [4] (MDA-MB-436, 4 h), 195 ± 4.5 nM; in assay [4] (MDA-MB-436, 48 h), 236 ± 71.5 nM. For the same compound, the IC50 in assay [5] (MDA-MB-468, 4 h) is 502 ± 171 nM; in assay [5] (MDA-MB-468, 48 h), 916 ± 173 nM; in assay [6] (4 h), 2070 ± 53.7 nM; in assay [6] (48 h), 1880 ± 298 nM.
